The test system of one series is LNCaP xenografts. Description: LNCaP xenograft model. The series is classed as in vivo, NOD/SCID mice. Conditions: mouse, in vivo. How it is done:
Treatment started 19 days after implantation when the tumors measure ˜200 mm^3. Two independent experiment with 5 mice per group were carried out. J54 and Bicalutamide was dissolved in DMSO and diluted in corn oil 1:10 and administered IP bi-weekly. Sectioning and processing of the tissues were carried out in the FWCC Histology Service, using automated processes and equipment to provide uniform and standardized results. Indirect labeling was with ABC Elite: RTU Vectastain Elite Reagent, Vector #PK-7100; DAB: ImmPact DAB, Vector #SK-4105. Light counterstaining was done with hematoxylin. […] Note the weak pNek1 stain in the tumor from mice treated with J54, in contrast to the increase seen with BIC.
LNCaP Xenograft Model and Immunohistochemistry (IHC): All animals used in this study were approved by LSUHSC IACUC and following ARRIVE guidelines. Male NOD/SCID mice (5 per group) were purchased from Jackson labs. LNCaP cells were injected as described earlier. Mice were treated IP bi-weekly with J54 (5 mg/kg body weight—dose estimation derived from pharmacokinetics study) and/or Bicalutamide (100 mg/kg).
The inventors sought to establish if the addition of J54 could suppress the resurgence of tumor growth of LNCaP xenografts and their latter conversion to CRPC. Following formation of sizeable tumors (˜200 mm^3), castration or anti-androgens arrest the progression of LNCaP xenografts for some time (2-3 weeks), while subsequently the tumors start growing again at an accelerated rate which is refractory to ADT (AI). Therefore, the inventors injected LNCaP cells in matrigel in both flanks of NOD-SCID mice, and then randomly assigned them to four treatment groups (n=5 per group×2 independent experiments), as shown in FIGS. 13A-13C. […] The inventors should also point out that the inventors treated the mice with J54 only bi-weekly due to the favorable pharmacokinetics, where maximal plasma concentration of 100 ng/ml ([…]) were reached 2 h after IP injection, and was still present at −6 ng/ml (6 μM) after 24 h (FIG. 18A-18C).

Series [1] has as its target T1, recombinant TLK1B (Homo sapiens, UniProt Q9UKI8).
T1 sequence (Q9UKI8 1-549 isoform Q9UKI8-3): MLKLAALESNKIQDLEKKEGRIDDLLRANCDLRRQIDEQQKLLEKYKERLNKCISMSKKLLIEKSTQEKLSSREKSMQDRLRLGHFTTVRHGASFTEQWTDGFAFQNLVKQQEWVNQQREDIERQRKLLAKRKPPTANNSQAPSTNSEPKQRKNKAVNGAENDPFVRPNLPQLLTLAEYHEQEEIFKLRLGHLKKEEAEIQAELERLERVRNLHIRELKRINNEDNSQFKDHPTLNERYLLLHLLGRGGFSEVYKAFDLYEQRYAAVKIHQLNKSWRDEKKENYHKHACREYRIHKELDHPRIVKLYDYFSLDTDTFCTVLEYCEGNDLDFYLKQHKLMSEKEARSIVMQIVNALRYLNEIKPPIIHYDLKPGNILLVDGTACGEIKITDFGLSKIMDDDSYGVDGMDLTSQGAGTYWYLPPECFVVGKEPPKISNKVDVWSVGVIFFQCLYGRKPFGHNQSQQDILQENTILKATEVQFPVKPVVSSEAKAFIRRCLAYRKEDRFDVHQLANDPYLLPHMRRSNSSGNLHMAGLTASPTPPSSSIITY
Kind of series: TLK1B kinase assay with Nek1 peptide (ADP Hunter), inhibitor screening. Conditions: tested at 20 μM. It counts as biochemical. Set-up: The full-length, 65 KDa recombinant human TLK1B (hTLK1B) for the in-vitro experiments was expressed and purified from bacteria; made in house; host or cells: bacteria. As for the experimental part:
FIG. 8A-FIG. 25 show further experiments into the present invention, with FIGS. 8A-8G show kinase assays, inhibitor screening, IC50 evaluation and competitive assays. Recombinant TLK1B purified to homogeneity (FIG. 8A) is active in kinase assays (FIG. 8B) and phosphorylates a specific Nek1 peptide (FIG. 8C). […] All experiments were conducted in triplicates. The DiscoverRx ADP Hunter™ (Eurofins DiscoverRx, Fremont, CA, US) Kit was used to measure the generation of ADP resulting from kinase phosphorylation of substrate.
Chemical synthesis of J54 and several different Phenothiazines and Protein expression and purification: Details were explained in section B of supplementary of material and methods. The full-length, 65 KDa recombinant human TLK1B (hTLK1B) for the in-vitro experiments was expressed and purified from bacteria as described earlier.
Results: A new PTH potent inhibitor of TLK1B. A few PTH antipsychotics were identified in a screen the inventors conducted from a compounds library as good inhibitors of TLK1. To find additional inhibitors, recombinant TLK1B was purified (FIG. 8A). The enzymatic activity was determined using the ADP-Hunter reagents and a Nek1 peptide containing the T141 target site. […] Several structurally similar compounds were synthesized as described in the Appendix (and see NMR and MS data FIGS. 10 and 11) and tested at 20 μM (FIGS. 8E and 8F). […] The inventors continued the inventors' characterization of J54.

The target in series [2] is T1, recombinant TLK1B. Description: High throughput screen with Rad9 peptide substrate / autokinase assay. The series is classed as biochemical. The conditions noted are these: library screen. How it is done:
FIGS. 5A and 5B show Inhibition of TLK1/1B autophosphorylation by PTH. […] 293T cells were incubated for 1 hour with PPH. TLK1 was immunoprecipitated, followed by auto-phosphorylation with γ-ATP^32. The blots were then probed with TLK1 antiserum.
Identification of TLK inhibitors. The inventors have screened the Prestwick Library, partially the ChemDiv, and two proprietary libraries (10,000 compounds) for inhibitors of TLK with a high throughput screen with recombinant TLK1B and a Rad9 peptide substrate. […] The inhibition of autokinase activity was confirmed by TCA-precipitable counts with γ32P-ATP (FIG. 5A).

Series [3] relates to panel of cell lines, including RWPE1 and hTERT-HME1. Kind of series: Toxicity on a panel of cell lines without doxorubicin. The conditions noted are these: 15 μM, absence of doxorubicin. It counts as cell-based.
The next series has as its system LNCaP cells. Kind of series: Emergence of androgen insensitive (AI) colonies of LNCaP with bicalutamide. It counts as cell-based.
The subject of a further series is 456 human kinases. Kind of series: Kinome panel (KinomeScan-DiscoverX). The series is classed as binding.

The source of these data is patent publication US11826369B2, “Targeting the TLK1/NEK1 axis in prostate cancer” (Board of Supervisors of Louisiana State University and …, priority 2019, dated 2023).

As to `CC(O)(CS(=O)(=O)c1ccc(F)cc1)C(=O)Nc1ccc(C#N)c(C(F)(F)F)c1` (stereo not shown) [BIC, Bicalutamide, reference compound], in the series with LNCaP xenografts, the “lag before exponential growth following beginning of administration” value is reported as 12 days.
For `CN1c2ccccc2Sc2ccccc21` [J56, 10-methyl-10H-phenothiazine], on recombinant TLK1B [1], the “inhibition of TLK1B compared with standard” value is “more inhibitory than Staurosporin”.
For `CN(C)CCCN1c2ccccc2Sc2ccccc21` [PMZ, Promazine], on recombinant TLK1B [2], the “inhibition of TLK” value is on record as “strong inhibitors”.
Consider `OCCN1CCN(CCCN2c3ccccc3Sc3ccc(Cl)cc32)CC1` [PPH, Perphenazine], for which the “inhibition of TLK” value at recombinant TLK1B [2] was “strong inhibitors”. Moreover, in series [3], the toxicity entry was “low toxicity”.
With `CN1CCN(CCCN2c3ccccc3Sc3ccc(C(F)(F)F)cc32)CC1` [TFP, Trifloroperazine], the “inhibition of TLK” value on recombinant TLK1B [2] was “strong inhibitors”. For the same molecule, in series [3], the toxicity result is recorded as “low toxicity”.
As for `CSc1ccc2c(c1)N(CCC1CCCCN1C)c1ccccc1S2` (stereo not shown) [THD, Thioridazine], the “growth inhibition in androgen containing medium (FCS)” value with LNCaP cells (3-9 μM THD) turned out to be 50%. Also, the “emergence of AI colonies” value in the series on LNCaP cells (3-9 μM THD with bicalutamide, three weeks) was “few or no AI colonies emerged”. In the series with LNCaP cells (three weeks of culture with bicalutamide), the “conversion of LNCaP cells to androgen independent growth” value is on record as “Complete inhibition”. In addition, on recombinant TLK1B [2], the “inhibition of TLK” value is on record as “strong inhibitors”. For the same molecule, the “specificity on kinome panel” value with 456 human kinases was “no other kinase (except TLK2) in the panel was inhibited”. Moreover, the toxicity entry in series [3] is recorded as “low toxicity”.
